Laboratory results taken from US6846802B2, “Macrocyclic NS3-serine protease inhibitors of hepatitis C virus comprising N-cyclic P2 moieties” (priority 2000, dated 2005).
Starred links: 1 amine or outer side, 2 acyl side, 3 side chain; linkers in the order of their positions; H or OH if unused. Positions of bridges follow the written chain, without caps; N, C: chain ends. Non-standard residues stand in square brackets, D forms with d. Residues, ends and D or L forms follow the SMILES beside them. Tic(7-O(CH2)6CO) = O=C([C@@H]1Cc2ccc(OCCCCCCC(=O)[*:3])cc2CN1[*:1])[*:2]; X1 = CCC[C@H](N[*:1])C(=O)C(=O)[*:2]; Chg = N[C@H](C(=O)O)C1CCCCC1; Phg = N[C@H](C(=O)O)c1ccccc1

Molecular target: HCV serine protease (subtype 1b, 1bNS4A21-32GS-GS NS3-81 I17K) in HeLa/Huh7 cells (Hepatitis C virus genotype 1b, UniProt P26663, I1043K)
Format: cell-based

Compound | Cell-Based Assay [µM]
CCCC(NC(=O)[C@@H]1C[C@@H]2CN1C(=O)[C@H](C1CCCCC1)NC(=O)Cc1cccc(c1)OCCCCO2)C(=O)C(=O)NCC(=O)N[C@H](C(=O)OC(C)(C)C)c1ccccc1 (mixture of isomers) [Compound 5] | 0.6
CCCC(NC(=O)[C@@H]1C[C@@H]2CN1C(=O)[C@H](C1CCCCC1)NC(=O)Cc1cccc(c1)OCCO2)C(=O)C(=O)NCC(=O)N[C@H](C(=O)OC(C)(C)C)c1ccccc1 (mixture of isomers) [Compound 8] | 3.5
CCCC(NC(=O)[C@@H]1Cc2ccc3cc2CN1C(=O)[C@H](C1CCCCC1)NC(=O)CCCCCCO3)C(=O)C(=O)NCC(=O)N[C@H](C(=O)OC(C)(C)C)c1ccccc1 (mixture of isomers) [Compound 58] | 2
CCCC(NC(=O)[C@@H]1C[C@@H]2CN1C(=O)[C@H](C1CCCCC1)NC(=O)Cc1cccc(c1)OCCCO2)C(=O)C(=O)NCC(=O)N[C@H](C(=O)OC(C)(C)C)c1ccccc1 (stereo partly shown) [Compound 2] | 2
CCC[C@@H](NC(=O)[C@@H]1C[C@@H]2CN1C(=O)[C@H](C1CCCCC1)NC(=O)Cc1cccc(c1)OCCCCO2)C(=O)C(=O)NCC(=O)N[C@H](C(=O)N(C)C)c1ccccc1 [Compound 4A] | 2.5
CCC[C@H](NC(=O)[C@@H]1C[C@@H]2CN1C(=O)[C@H](C1CCCCC1)NC(=O)Cc1cccc(c1)OCCCCO2)C(=O)C(=O)NCC(=O)N[C@H](C(=O)N(C)C)c1ccccc1 [Compound 4B] | 1.8
CCC[C@H](NC(=O)[C@@H]1C[C@@H]2CN1C(=O)[C@H](C(C)(C)C)NC(=O)Cc1cccc(c1)OCCCO2)C(=O)C(=O)NCC(=O)N[C@H](C(=O)N(C)C)c1ccccc1 [Compound 12B] | 5.2
CCCC(NC(=O)[C@@H]1C[C@@H]2CN1C(=O)[C@H](C1CCCCC1)NC(=O)CCc1cccc(c1)OCCO2)C(=O)C(=O)NCC(=O)N[C@H](C(=O)OC(C)(C)C)c1ccccc1 (stereo partly shown) [Compound 21] | 2
CCCC(NC(=O)[C@@H]1C[C@@H]2CN1C(=O)[C@H](C1CCCCC1)NC(=O)Cc1cccc(c1)OCCCO2)C(=O)C(=O)NCC(=O)OCc1ccccc1 (stereo partly shown) [Compound 23] | 3
CCC[C@H](NC(=O)[C@@H]1Cc2ccc3cc2CN1C(=O)[C@H](C1CCCCC1)NC(=O)CCCCCCO3)C(=O)C(=O)NCC(=O)N[C@H](C(=O)N(C)C)c1ccccc1 [Compound 57B] ([Chg][Tic(7-O(CH2)6CO)][X1]G[Phg]-NMe2; lactam N-2) | 1.5
